Data from patent US20250197368A1 (priority 2020, published 2025).
“And” between values parts separate entries of the source, which are not always exact repeats. Equal entries are not always repeated.

Key:
[1] = test system: rat brain benzodiazepine binding sites on GABAAR; assay: Rat brain receptor occupancy assay ([3H]flumazenil binding); format: in vivo; details: for occupancy of rat brain GABAA receptors (benzodiazepine binding sites): mean±SEM
Experimental: The occupancy of rat brain benzodiazepine binding sites on GABAAR by compound was measured by its ability to inhibit the ex vivo binding of [^3H]Ro15-1788 ([^3H] flumazenil) in brain samples from rats dosed with the test compound.
Male Sprague Dawley rats (c. 200-300 g) were used for the studies. All animals were acclimatized 5-7 days before dosing and were handled and weighed prior to treatments.
Rats (3 to 6 per group) were dosed p.o. with either the vehicle or the test compound suspended in vehicle (doses of 0.1 to 10 mg/kg) at a volume of 5 mL per kg of body weight. To block all benzodiazepine binding sites and therefore define the level of non-specific binding of [^3H]Ro15-1788, a separate group of animals received a dose of 5 mg/kg p.o. of bretazenil (5 mL/kg) made up in 70% PEG, 30 minutes before the animals were killed.
At predetermined time intervals, animals were culled via stunning and cervical dislocation. Brain tissues were harvested promptly, and each left and right hemisphere were snap frozen and stored at −80° C.
On the day of the brain samples analysis, each left hemisphere was weighed and homogenized in 8 volumes of ice-cold 10 mM potassium phosphate buffer (pH 7.4). 300 μL of the mixture was further diluted by adding it to a tube containing 1050 μL of assay buffer and [^3H] flumazenil further added to make a total volume of 1500 μL and achieve a final concentration of 4 nM, mixing immediately and incubating on ice.
Following 20 seconds incubation time, the sample was rapidly filtered through Whatman GF/B filter in triplicates (500 μL/filter) using a vacuum filtration manifold. The filters were subsequently washed with 10 mL of ice cold 50 mM Tris buffer (pH 7.4) and then placed into scintillation vials containing scintillation fluid. Filter-bound radioactivity was counted on a TriCarb2900 scintillation counter.
In each experiment, the value of nonspecific binding defined using bretazenil was subtracted from all groups to give values of specific binding.
The percent GABAAR occupancy of the test compound at a specific dose and treatment time was calculated as the percentage by which the specific binding in the vehicle treated group was inhibited by the drug. Therefore, the % occupancy of the modulator in drug-treated animals was expressed as: 100−((Average test compound−Average bretazenil)/(Average vehicle−Average Bretazenil)*100) where ‘average test compound’, ‘average bretazenil’ and ‘average vehicle’ are the average counts in test compound-, bretazenil- and vehicle-treated animals, respectively.

[2] = molecular target: human α2β3γ2 GABAARs (benzodiazepine site) (Homo sapiens (Human), UniProt P18507+P47869); assay: In vitro radioligand binding assay ([3H]Ro15-1788 displacement), α2-GABAAR Ki
Summary of the method: (§1)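 Membranes from dexamethasone-induced mouse L(tk−) cells stably expressing the human receptor were incubated 1 h at 4° C with 4 nM [3H]Ro15-1788 and graded compound; nonspecific binding with 1-3 μM TP003. Filter-bound radioactivity counted; Ki from IC50 by Cheng-Prusoff using the measured radioligand Kd.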

[3] = molecular target: human α3β3γ2 GABAARs (benzodiazepine site) (Homo sapiens (Human), UniProt P18507+P34903); assay: In vitro radioligand binding assay ([3H]Ro15-1788 displacement), α3-GABAAR Ki; details: L(tk-) cell membranes, 4 nM [3H]Ro15-1788
Summary of the method: as §1

Sequence of human α2β3γ2 GABAARs (benzodiazepine site) (P47869 29-451): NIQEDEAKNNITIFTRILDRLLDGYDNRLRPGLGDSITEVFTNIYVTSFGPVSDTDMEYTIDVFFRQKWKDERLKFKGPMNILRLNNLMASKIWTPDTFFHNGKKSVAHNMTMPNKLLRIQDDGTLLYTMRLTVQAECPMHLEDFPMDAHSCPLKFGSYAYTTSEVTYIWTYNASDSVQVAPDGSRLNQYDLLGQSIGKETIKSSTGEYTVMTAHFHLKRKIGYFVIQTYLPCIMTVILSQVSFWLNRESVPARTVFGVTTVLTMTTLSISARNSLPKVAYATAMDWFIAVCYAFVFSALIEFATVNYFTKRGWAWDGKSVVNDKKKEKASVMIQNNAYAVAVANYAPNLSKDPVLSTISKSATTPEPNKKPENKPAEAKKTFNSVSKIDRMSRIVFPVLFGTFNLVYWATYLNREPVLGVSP
Sequence of human α2β3γ2 GABAARs (benzodiazepine site) (P28472 26-473 partner): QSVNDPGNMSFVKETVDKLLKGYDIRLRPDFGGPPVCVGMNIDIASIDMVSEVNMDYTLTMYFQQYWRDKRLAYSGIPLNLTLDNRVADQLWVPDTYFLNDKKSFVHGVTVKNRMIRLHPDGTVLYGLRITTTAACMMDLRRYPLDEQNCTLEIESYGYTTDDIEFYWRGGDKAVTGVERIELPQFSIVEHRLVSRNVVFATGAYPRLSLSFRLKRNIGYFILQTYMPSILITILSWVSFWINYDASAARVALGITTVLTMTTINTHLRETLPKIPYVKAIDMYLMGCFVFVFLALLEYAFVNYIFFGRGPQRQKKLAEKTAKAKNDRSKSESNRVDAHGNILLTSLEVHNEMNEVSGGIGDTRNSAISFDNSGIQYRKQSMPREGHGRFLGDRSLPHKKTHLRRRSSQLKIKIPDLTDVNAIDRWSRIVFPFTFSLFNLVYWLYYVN
Sequence of human α2β3γ2 GABAARs (benzodiazepine site) (P18507 40-475): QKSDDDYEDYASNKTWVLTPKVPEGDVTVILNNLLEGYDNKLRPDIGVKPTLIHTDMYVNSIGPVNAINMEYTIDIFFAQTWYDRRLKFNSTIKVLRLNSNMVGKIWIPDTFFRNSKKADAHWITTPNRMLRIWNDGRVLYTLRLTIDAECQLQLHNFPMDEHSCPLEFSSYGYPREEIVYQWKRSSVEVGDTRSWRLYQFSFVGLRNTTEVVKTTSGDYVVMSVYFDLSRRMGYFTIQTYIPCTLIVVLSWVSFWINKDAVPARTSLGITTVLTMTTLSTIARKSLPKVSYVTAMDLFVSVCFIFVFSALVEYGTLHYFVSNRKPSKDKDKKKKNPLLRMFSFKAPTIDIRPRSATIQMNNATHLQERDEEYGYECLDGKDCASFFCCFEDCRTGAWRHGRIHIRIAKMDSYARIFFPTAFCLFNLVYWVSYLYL

Compound | occupancy of rat brain GABAA receptors (benzodiazepine binding sites) ([1]; 1 mg/kg p.o.) [%] | occupancy of rat brain benzodiazepine binding sites, dose dependence ([1]; doses 0.1 to 10 mg/kg p.o.) | Ki [2] [nM] | Ki [3] [nM] | occupancy of rat brain benzodiazepine binding sites, dose dependence ([1]; doses 0.3 to 10 mg/kg p.o.) | occupancy of rat brain GABAA receptors (benzodiazepine binding sites) ([1]; 10 mg/kg p.o.)
CCCNC(=O)c1c(N)c2cccc(-c3nc(C)ncc3F)c2[nH]c1=O [Example 40, 4-Amino-8-(5-fluoro-2-methyl-pyrimidin-4-yl)-2-oxo-N-propyl-1H-quinoline-3-carboxamide] | 97.3±2.0 | dose-dependent | 1.19 | 5.06 | – | –
CCCNC(=O)c1c(N)c2cccc(-c3cnc(C)cc3OC)c2[nH]c1=O [Example 18, 4-Amino-8-(4-methoxy-6-methyl-3-pyridyl)-2-oxo-N-propyl-1H-quinoline-3-carboxamide] | – | – | 9.77 | 27.9 | dose-dependent | –
CCCNC(=O)c1c(N)c2cccc(-c3cnccc3OC)c2[nH]c1=O [Example 17, 4-Amino-8-(4-methoxy-3-pyridyl)-2-oxo-N-propyl-1H-quinoline-3-carboxamide] | – | dose-dependent | 1.64 | 8.74 | – | 101+0.5% and 101±0.5%
